# In PubChem BioAssay (NCI):
#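 Five compound concentrations were applied to cells in 96-well plates for 48 hours; endpoints were derived by simple linear interpolation of the resulting dose-response curve. Abbreviation: GI50, concentration required for 50% inhibition of growth. TGI is the concentration that stops growth completely.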
# Legend:
# Assay in all cases: growth of human tumour cells (NCI), 48 h
# [1] = system: NCI-H23 lung
# [2] = system: NCI-H460 lung
# [3] = system: NCI-H522 lung
# [4] = system: NCI/ADR-RES ovarian
# [5] = system: OVCAR-3 ovarian
# [6] = system: OVCAR-4 ovarian
# [7] = system: OVCAR-5 ovarian
# [8] = system: OVCAR-8 ovarian
# [9] = system: PC-3 prostate
# [10] = system: RPMI-8226 leukemia
# [11] = system: RXF 393 renal
# [12] = system: SF-268 CNS
# [13] = system: SF-295 CNS
# [14] = system: SF-539 CNS
# [15] = system: SK-MEL-2 melanoma
# [16] = system: SK-MEL-28 melanoma
# [17] = system: SK-MEL-5 melanoma
# [18] = system: SK-OV-3 ovarian
# [19] = system: SN12C renal
# [20] = system: SNB-19 CNS
# [21] = system: SNB-75 CNS
# [22] = system: SR leukemia
# [23] = system: SW-620 colon
# [24] = system: T-47D breast
# [25] = system: TK-10 renal
# [26] = system: U251 CNS
# [27] = system: UACC-257 melanoma
# [28] = system: UACC-62 melanoma
# [29] = system: UO-31 renal
structure (smiles),measurement,setting,value
CCN(Cc1ccccc1OC)c1ccc(CO)c(Cl)c1,TGI,[1],29.9 µM
same,GI50,[2],511 nM
same,TGI,[2],11.6 µM
same,GI50,[3],12 µM
same,TGI,[3],26.1 µM
same,GI50,[4],9.22 µM
same,TGI,[4],26.9 µM
same,GI50,[5],767 nM
same,TGI,[5],4.48 µM
same,GI50,[6],518 nM
same,TGI,[6],10.3 µM
same,GI50,[7],123 nM
same,TGI,[7],416 nM
same,GI50,[8],12.4 µM
same,TGI,[8],31.8 µM
same,GI50,[9],12.3 µM
same,TGI,[9],27.9 µM
same,GI50,[10],2670 nM
same,TGI,[10],21.5 µM
same,GI50,[11],7.61 µM
same,TGI,[11],24.7 µM
same,GI50,[12],15.1 µM
same,TGI,[12],30.7 µM
same,GI50,[13],2710 nM
same,TGI,[13],15.3 µM
same,GI50,[14],14.4 µM
same,TGI,[14],27.8 µM
same,GI50,[15],2110 nM
same,TGI,[15],10.9 µM
same,GI50,[16],10.3 µM
same,TGI,[16],24.8 µM
same,GI50,[17],6.61 µM
same,TGI,[17],19.9 µM
same,GI50,[18],7.15 µM
same,TGI,[18],20.9 µM
same,GI50,[19],11.1 µM
same,TGI,[19],23.5 µM
same,GI50,[20],13.7 µM
same,TGI,[20],31.8 µM
same,GI50,[21],9.47 µM
same,TGI,[21],26.5 µM
same,GI50,[22],8.53 µM
same,TGI,[22],40.9 µM
same,GI50,[23],2330 nM
same,TGI,[23],17.5 µM
same,GI50,[24],91 nM
same,TGI,[24],685 nM
same,GI50,[25],51.2 nM
same,TGI,[25],372 nM
same,GI50,[26],1380 nM
same,TGI,[26],14.8 µM
same,GI50,[27],162 nM
same,TGI,[27],498 nM
same,GI50,[28],223 nM
same,TGI,[28],1790 nM
same,GI50,[29],11.5 µM
same,TGI,[29],24.7 µM
